ChEMBL document CHEMBL1201862, “PubChem BioAssay data set” (2004)
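Protocol summary: plate cells (96-well), add compound at 5 concentrations, incubate 48 h, interpolate endpoints linearly. The concentration for 50% growth inhibition is given as GI50.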 Activity calls are given as the source filed them. No stated cut-off is given here; in the data, active = GI50 up to about 1.1 µM and inactive = higher.

How the values were obtained:
Experiment in all cases: inhibition of tumour cell growth, NCI panel, 48 h
SK-MEL-5 = system: SK-MEL-5
SF-539 = system: SF-539
OVCAR-8 = system: OVCAR-8
LOX IMVI = system: LOX IMVI
TK-10 = system: TK-10
NCI/ADR-RES = system: NCI/ADR-RES
T47D = system: T47D
Malme-3M = system: Malme-3M
NCI-H226 = system: NCI-H226
HT-29 = system: HT-29
MDA-N = system: MDA-N
NCI-H23 = system: NCI-H23
786-0 = system: 786-0
SF-295 = system: SF-295
OVCAR-5 = system: OVCAR-5
KM12 = system: KM12
SN12C = system: SN12C
NCI-H522 = system: NCI-H522
BT-549 = system: BT-549
K562 = system: K562
SK-MEL-28 = system: SK-MEL-28
M14 = system: M14
SNB-75 = system: SNB-75
CCRF-CEM = system: CCRF-CEM
HCT-116 = system: HCT-116
SK-OV-3 = system: SK-OV-3
RXF 393 = system: RXF 393
SF-268 = system: SF-268
UACC-257 = system: UACC-257
A549 = system: A549
UACC-62 = system: UACC-62
U-251 = system: U-251
SK-MEL-2 = system: SK-MEL-2
HL-60 = system: HL-60
OVCAR-4 = system: OVCAR-4
ACHN = system: ACHN
OVCAR-3 = system: OVCAR-3
MDA-MB-231 = system: MDA-MB-231
PC-3 = system: PC-3
HOP-62 = system: HOP-62
DU-145 = system: DU-145
RPMI-8226 = system: RPMI-8226
MCF7 = system: MCF7
SW-620 = system: SW-620
Hs-578T = system: Hs-578T
SNB-19 = system: SNB-19
SR = system: SR
HOP-92 = system: HOP-92
HCT-15 = system: HCT-15
UO-31 = system: UO-31
MOLT-4 = system: MOLT-4
A498 = system: A498
CAKI-1 = system: CAKI-1
MDA-MB-435 = system: MDA-MB-435
EKVX = system: EKVX
COLO 205 = system: COLO 205
IGROV-1 = system: IGROV-1
HCC 2998 = system: HCC 2998
NCI-H460 = system: NCI-H460

Measured: GI50

C(=N\Nc1ccc(-c2nc3ccccc3[nH]2)cc1)/c1c(-c2ccc(Cc3ccccc3)cc2)[nH]c2ccccc12
active: SF-268 0.925 µM
inactive: SK-MEL-5 6.41 µM | SF-539 5.74 µM | OVCAR-8 7.91 µM | LOX IMVI 4.05 µM | TK-10 21.5 µM | NCI/ADR-RES 5.31 µM | T47D 7.18 µM | Malme-3M 2.49 µM | NCI-H226 > 94.4 µM | HT-29 3.67 µM | MDA-N 2.38 µM | NCI-H23 8.79 µM | 786-0 3.3 µM | SF-295 2.56 µM | OVCAR-5 26.1 µM | KM12 4.37 µM | SN12C 18.6 µM | NCI-H522 9.08 µM | BT-549 4.1 µM | K562 4.46 µM | SK-MEL-28 12.9 µM | M14 4.48 µM | SNB-75 4.47 µM | CCRF-CEM 5.06 µM | HCT-116 5.01 µM | SK-OV-3 21.6 µM | RXF 393 2.29 µM | UACC-257 13.5 µM | A549 6.85 µM | UACC-62 7.69 µM | U-251 6.01 µM | SK-MEL-2 3.56 µM | HL-60 7.06 µM | OVCAR-4 14.1 µM | ACHN 11 µM | OVCAR-3 9.44 µM | MDA-MB-231 11.5 µM | PC-3 4.86 µM | HOP-62 19.6 µM | DU-145 16.8 µM | RPMI-8226 3.08 µM | MCF7 5.06 µM | SW-620 9.98 µM | Hs-578T 2.57 µM | SNB-19 14.2 µM | SR 2.15 µM | HOP-92 4.09 µM | UO-31 10.8 µM | MOLT-4 2.56 µM | A498 11.4 µM | CAKI-1 14.3 µM | MDA-MB-435 3.23 µM | EKVX 20.4 µM | COLO 205 3.94 µM | IGROV-1 4.41 µM | HCC 2998 3.83 µM | NCI-H460 10.8 µM
4.07 µM: HCT-15

CCOC1OC(=O)c2cc3ccc4c(c3c(-c3ccc5c(c3)OCO5)c21)OCO4 (stereo unspecified)
inactive: SK-MEL-5 2.72 µM | SF-539 1.42 µM | OVCAR-8 35.7 µM | LOX IMVI 3.79 µM | TK-10 4.75 µM | NCI/ADR-RES 5.13 µM | T47D 9.79 µM | Malme-3M > 100 µM | NCI-H226 4.71 µM | HT-29 4.76 µM | MDA-N 1.9 µM | NCI-H23 3.72 µM | 786-0 9.06 µM | SF-295 2.27 µM | OVCAR-5 14.5 µM | KM12 4.58 µM | SN12C 10.9 µM | BT-549 4.28 µM | K562 7.6 µM | SK-MEL-28 9.53 µM | M14 3.4 µM | CCRF-CEM 9.33 µM | HCT-116 2.43 µM | SK-OV-3 1.42 µM | RXF 393 5.79 µM | SF-268 5.46 µM | UACC-257 9.79 µM | A549 3.08 µM | UACC-62 6.01 µM | U-251 5.68 µM | SK-MEL-2 12.8 µM | HL-60 9.91 µM | OVCAR-4 16.7 µM | ACHN 10.4 µM | MDA-MB-231 17.4 µM | PC-3 10.1 µM | HOP-62 4.63 µM | DU-145 70.5 µM | RPMI-8226 4.12 µM | MCF7 9.57 µM | SW-620 6.04 µM | Hs-578T 3.2 µM | SNB-19 8.95 µM | SR 2.04 µM | HOP-92 96.8 µM | UO-31 22 µM | MOLT-4 6.05 µM | A498 9.4 µM | CAKI-1 4.48 µM | MDA-MB-435 3.04 µM | EKVX 3.54 µM | COLO 205 1.55 µM | IGROV-1 4.6 µM | HCC 2998 2.26 µM | NCI-H460 3.56 µM
4.85 µM: HCT-15
active: NCI-H522 0.687 µM | SNB-75 1.08 µM | OVCAR-3 0.417 µM

CC(C)OC(=O)c1ccc(CCC2=CC(=O)C(Br)=CC2=O)cc1
active: CCRF-CEM 0.783 µM
inactive: SK-MEL-5 12.8 µM | SF-539 19.2 µM | OVCAR-8 15.3 µM | LOX IMVI 15.9 µM | TK-10 19.7 µM | NCI/ADR-RES 14.5 µM | T47D 19.6 µM | Malme-3M 15.7 µM | NCI-H226 19.8 µM | HT-29 16.8 µM | MDA-N 16.4 µM | NCI-H23 13.2 µM | 786-0 16.5 µM | SF-295 19.9 µM | OVCAR-5 22.1 µM | KM12 13 µM | SN12C 16.9 µM | NCI-H522 5.56 µM | BT-549 5.27 µM | K562 2.84 µM | SK-MEL-28 18.2 µM | M14 16.4 µM | SNB-75 16.1 µM | HCT-116 16.7 µM | SK-OV-3 40.6 µM | RXF 393 17.1 µM | SF-268 16 µM | UACC-257 13.2 µM | A549 34.7 µM | UACC-62 17.5 µM | U-251 15.6 µM | SK-MEL-2 15.6 µM | HL-60 2.16 µM | OVCAR-4 5.75 µM | ACHN 14.5 µM | OVCAR-3 14.8 µM | MDA-MB-231 17.2 µM | PC-3 17 µM | HOP-62 29.6 µM | DU-145 23.7 µM | RPMI-8226 7.26 µM | MCF7 17.7 µM | SW-620 15.5 µM | Hs-578T 15.7 µM | SNB-19 15.3 µM | SR 3.82 µM | HOP-92 12.4 µM | UO-31 13.8 µM | MOLT-4 3.09 µM | A498 35.9 µM | CAKI-1 20.6 µM | MDA-MB-435 16.9 µM | EKVX 16.3 µM | COLO 205 11.9 µM | IGROV-1 14.4 µM | HCC 2998 16.9 µM | NCI-H460 20.7 µM
15.4 µM: HCT-15

CCCC(=O)Nc1cc(/C=C/C(=O)N2C[C@@H]3C[C@]34C2=CC(=O)c2[nH]cc(C)c24)n(C)c1
0.723 µM: HCT-15
active: SK-MEL-5 0.0748 µM | SF-539 0.166 µM | OVCAR-8 0.0533 µM | LOX IMVI 0.0733 µM | TK-10 0.495 µM | NCI/ADR-RES 0.778 µM | T47D 0.0867 µM | Malme-3M 0.0746 µM | NCI-H226 0.313 µM | HT-29 0.208 µM | MDA-N 0.361 µM | NCI-H23 0.0927 µM | 786-0 0.0757 µM | SF-295 0.453 µM | OVCAR-5 1.05 µM | KM12 0.653 µM | SN12C 0.47 µM | NCI-H522 0.0432 µM | BT-549 0.29 µM | K562 0.0661 µM | SK-MEL-28 0.408 µM | M14 0.297 µM | SNB-75 0.345 µM | CCRF-CEM 0.0321 µM | HCT-116 0.0841 µM | SK-OV-3 0.975 µM | RXF 393 0.0711 µM | SF-268 0.083 µM | UACC-257 0.098 µM | A549 0.318 µM | UACC-62 0.0682 µM | U-251 0.0702 µM | SK-MEL-2 0.261 µM | HL-60 0.0471 µM | OVCAR-4 0.256 µM | ACHN 0.0689 µM | OVCAR-3 0.429 µM | MDA-MB-231 0.38 µM | PC-3 0.259 µM | HOP-62 0.769 µM | DU-145 0.0673 µM | RPMI-8226 0.675 µM | MCF7 0.0596 µM | SW-620 0.0706 µM | Hs-578T 0.668 µM | SNB-19 0.745 µM | SR 0.0149 µM | HOP-92 0.372 µM | UO-31 0.473 µM | MOLT-4 0.0257 µM | A498 0.236 µM | CAKI-1 0.1 µM | MDA-MB-435 0.285 µM | EKVX 0.644 µM | COLO 205 0.293 µM | IGROV-1 0.329 µM | HCC 2998 0.0931 µM | NCI-H460 0.221 µM
